How the values were obtained:
[1] = system: adhesion of DC to ICAM-3; test: Fluorescent beads adhesion assay: adhesion of DC to ICAM-3Fc beads; assay type: cell-based, human; conditions: 5 mM
Method: Exploiting a novel flowcytrometric adhesion assay involving ICAM-3-Fc chimera coated fluorescent beads (Geijtenbeek et al.), the capacity of DC, resting peripheral blood lymphocytes (PBL) and monocytes to bind to this integrin ligand was tested. […] Freshly isolated PBL, monocytes and DC were incubated for 30 min. at 37° C. with either ICAM-1Fc or ICAM-3Fc fluorescent beads. After washing, the percentage of cells that bound beads was determined by flowcytometry. • 1B: Adhesion of leukocytes to ICAM-3 after activation of β2-integrins. Binding of fluorescent ICAM-3Fc beads was measured after 30 min. at 37° C. in the presence of either PMA 980 nM) or the activating anti-β2-integrin antibody KIM185 (10 μg/ml). Inhibition of the LFA-1 specific adhesion after PMA activation was determined in the presence of the blocking anti-LFA-1 antibody NKI-L15 (20 μg/ml). • 1C: Adhesion of DC to ICAM-3 in the presence of blocking antibodies (20 μg/ml) against β2-integrins (NKI-L19), β1-integrin (AIIB2), ICAM-3 (CBR-IC3/1, CBR-IC3/2) or in the presence of EDTA (5 mM) or EGTA (5 mM). The adhesion was determined as described in FIG. 1A.
DC were cultured from monocytes in the presence of GM-CSF and IL-4. […] Adhesion was determined as described in FIG. 1A. […]

[2] = target: T1, DC-SIGN (Homo sapiens, UniProt Q9NNX6); test: Binding of DC-SIGN to ICAM-2 and ICAM-3 expressing K562 cells (FIG. 8); assay type: cell-based
T1 construct: expressed in transfected cells; host or cells: COS7 cells, transient transfection with pRc/CMV-DC-SIGN (DEAE dextran)
T1 sequence (Q9NNX6 1-404): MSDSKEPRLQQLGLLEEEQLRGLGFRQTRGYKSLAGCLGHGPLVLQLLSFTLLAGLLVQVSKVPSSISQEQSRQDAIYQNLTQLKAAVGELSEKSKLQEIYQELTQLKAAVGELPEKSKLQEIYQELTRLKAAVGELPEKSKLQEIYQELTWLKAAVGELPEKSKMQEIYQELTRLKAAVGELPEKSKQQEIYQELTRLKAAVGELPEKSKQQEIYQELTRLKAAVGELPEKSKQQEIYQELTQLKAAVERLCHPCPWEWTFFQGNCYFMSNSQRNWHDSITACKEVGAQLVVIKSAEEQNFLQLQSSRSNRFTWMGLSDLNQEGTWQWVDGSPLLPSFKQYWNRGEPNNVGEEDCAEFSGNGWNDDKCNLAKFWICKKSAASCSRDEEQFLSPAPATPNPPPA

[3] = target: T1, DC-SIGN; test: Adhesion of COS7-DC-SIGN cells to ICAM-3 beads; assay type: cell-based; conditions: 5 mM
Excerpt: RT-PCR analysis with primers based on the gp120-binding C-type lectin sequence, on RNA isolated from DC yielded a PCR product of the expected length of 1237 nt. The DC-specific PCR product was cloned and sequencing confirmed 100% identity with the human gp120-binding lectin (FIG. 3B). Flowcytometric analysis of COS7 cells, transfected with the cDNA encoding the placenta gp120-binding C-type lectin, unequivocally proves that the gp120 binding C-type lectin is indeed identical to DC-SIGN (FIG. 4A). […] COS7 cells were transfected and the adhesion was determined as described in FIG. 1A, respectively. Adhesion of COS7-DC-SIGN cells to ICAM-3 was measured in the presence of EGTA (5 mM) and blocking antibodies against DC-SIGN (AZN-D1), ICAM-3 (CBR-IC3/1, CBR-IC3/2) and β2 integrinds (AZN-L19). A representative experiment out of 3 is shown (SD<5%). About 30% of the transfected COS7 cells are stained with anti-DC-SIGN-antibody and therefore express DC-SIGN. […]
Carboxylate-modified TransFluorSpheres (488/645 nm, 1.0 μm; Molecular Probes, Eugene, Oreg.) were coated with ICAM-1 Fc and ICAM-3 Fc as described previously (Geijtenbeek et al., 1999 submitted). […] Adhesion was determined by measuring the percentage of cells, which have bound fluorescent beads, by flowcytometry using the FACScan (Becton and Dickinson & Co., Oxnard, Calif.).

| Compound | Inhibition of adhesion of DC to ICAM-3Fc fluorescent beads [1] | Inhibition of DC-SIGN binding to K562 cells expressing ICAM-2 or ICAM-3 [2] | Inhibition of adhesion of COS7-DC-SIGN cells to ICAM-3 [3] |
| --- | --- | --- | --- |
| O=C(O)CN(CCN(CC(=O)O)CC(=O)O)CC(=O)O [EDTA] | completely blocked |  |  |
| mannan |  | can be inhibited |  |
| O=C(O)CN(CCOCCOCCN(CC(=O)O)CC(=O)O)CC(=O)O [EGTA] | completely blocked |  | blocks adhesion completely |
